According to US20050261292A1, “Pharmaceutical composition containing N-sulfamoyl-N'-arylpiperazines for the treatment or inhibition of obesity and related conditions” (Solvay Pharmaceuticals GmbH, priority 2004, published 2005):
Structures can show the parent of a compound that is named as a salt.

What was measured:
[1] = molecular target: T1, human carbonic anhydrase isoenzyme II (hCA II) (Homo sapiens, UniProt P00918); assay: In vitro inhibition of human carbonic anhydrase isoenzyme II (hCA II), dansylamide fluorescence; format: biochemical; details: hCA II from erythrocytes 10^-7 M, 60 min, single measurements, read-out: hCA II inhibiting effect in vitro, IC50
T1 construct: human carbonic anhydrase isoenzyme II from erythrocytes (Sigma-Aldrich); purchased Sigma-Aldrich; host or cells: human erythrocytes (natural source)
Procedure: 1. In vitro Inhibition of Human Carbonic Anhydrase Isoenzyme II (hCA II)
The test compounds of Formula I in 96 well microplates were diluted with aqua bidest by using an automatic pipettor (CyBiWell®). From the different dilution plates, aliquots of 20 μl were transferred to the 96 well black assay plates with a pipetting station (Tecan Genesis®). In a second step, 148 μl of potassium phosphate buffer (20 mM, pH 7.4) was added, and as a third step, 20 μl of enzyme solution (1 μM human carbonic anhydrase isoenzyme II from erythrocytes (Sigma-Aldrich), dissolved in potassium phosphate buffer) incubated for 60 min at room temperature and the fluorescence signal (Tecan Ultra® fluorescence reader; excitation wavelength: 280 nm; emission wavelength: 465 nm) read at the end of the preincubation period (FLU-1). After the preincubation time, 20 μl of aqueous dansylamide solution (1 mM dansylamide (Sigma-Aldrich), dissolved in hydrochloric acid) were added and the fluorescence signal read every 10 min for a period of 60 min at 37° C. For calculation, the fluorescence data of the time point 60 min (FLU-2) were used. The total volume of assay mixture amounted to 208 μl. The final concentration of carbonic anhydrase II was 10^−7 M/L, of dansylamide 2.25×10^−6 and of compounds from 10^−8 M/L up to 10^−5 M/L. Final concentration of DMSO as compound solvent was […]. Each microplate also contained blanks without compound and enzyme, controls without compound and ethoxzolamide (final concentration 5×10^−8 M/L). All data reflect single measurements. Data were expressed as % inhibition after calculation by the formula: % inhibition=100((1−(FLU−2cpd−FLU−2blank−FLU−1cpd+FLU−1blank)/(FLU−2control−FLU−2blank−FLU−1control−FLU−1blank))
The % inhibition data for each compound and the respective final concentrations were used for IC50 calculations by using the Prism 4 software. Concentration action figures were calculated by applying the Prism algorithm for nonlinear regression (curve-fit): sigmoidal dose response with variable slope and the constraints: top: 100 and bottom 0.

male fatty Zucker rats = assay: In vivo oral glucose tolerance test in the rat; details: 100 mg/kg/day oral gavage
Procedure: 2. In vivo Oral Glucose Tolerance Test in the Rat
The studies were carried out in individually housed male fatty Zucker rats (n=10 per group) weighing ca. 250-500 g. The rats were kept on a normal 12/12 h light/dark cycle (lights on 07.00) and they were allowed food (lab chow) and water ad libitum except for during experiments, when they were fasted overnight before the glucose challenge.
The test substances of Formula I were suspended in 2% polyethylenglycol (=PEG) 1% carboxymethylcellulose and administered by oral gavage at a dose of 100 mg/kg/day; ⅓ of the dose (1 ml/kg, 33 mg/ml) was administered at 08.30-09.30 h; the remaining […] (2 ml/kg; 33 mg/ml) was administered between 16.00-17.00 h and the last ⅓ dose was given the following morning. Control animals received only the vehicle. On the day of the test, 45 min after the final dose of test substance/vehicle a blood sample (0 min) was taken (tail vein) immediately after which the rats received an oral glucose challenge (1.25 g/kg; 118 mg/ml). Further blood samples were taken at 30, 60, 90, 120 min after the glucose challenge. The second drop of blood of each sample was placed on a glucose test strip before this was placed in the glucose meter for determination of blood glucose level (Life Scan One Touch Ultra Blood® Glucose Meter and Life Scan One Touch Ultra® Test Strips; Life Scan Inc.; Milpitas, Calif. 95035). The remaining blood of each sample was spun and the plasma was frozen at −80° C. before analysis for insulin (1-2-3 Rat Insulin ELISA kit, Alpco Diagnostics).
The values obtained were plotted and the AUC for test compounds and vehicle (for glucose and insulin) were determined after which the percent control AUC, percent control maximum value and % control baseline were estimated, to determine the influence of the test compound on the glucose tolerance.

In the case of `NS(=O)(=O)N1CCN(c2ccccc2)CC1` [Example 2, N-Sulfamoyl-N′-phenylpiperazine hydrochloride], the IC50 [1] is reported as 5.1 µM, the “Glucose Baseline” value (male fatty Zucker rats; 0 min sample before glucose challenge) is reported as 82 % of control and the “Insulin Baseline” value (male fatty Zucker rats; 0 min sample before glucose challenge, plasma) is reported as 85 % of control. The “Glucose Maximal effect” value (male fatty Zucker rats; oral glucose challenge 1.25 g/kg) was 78 % of control, the “Glucose AUC” value (male fatty Zucker rats; oral glucose challenge 1.25 g/kg, 0-120 min) was 84 % of control and the “Insulin AUC” value (male fatty Zucker rats; oral glucose challenge 1.25 g/kg, 0-120 min, plasma) was 95 % of control. The “Insulin Maximal effect” value (male fatty Zucker rats; oral glucose challenge 1.25 g/kg, plasma) was 95 % of control.
